# In patent publication US20160074409A1, “Treatment of Skeletal-Related Disorders” (priority 2013, published 2016):
# Tested on: MDA-MB-231 breast carcinoma cells
# Experiment: Bone density in bone metastasis model (femoral and tibial X-ray densitometry)
# Format: in vivo, Nude (rnu/rnu) female rats
# Settings: metastatic bone cancer model, MDA-MB-231 cells injected into tibia; Group G5: 90 mg/kg BID PO, N=6; 6 weeks; FIG. 1
# Experimental: Nude (rnu/rnu) female rats were obtained from Charles River (Wilmington, Mass.). The rats were pair-housed in polycarbonate micro-isolator cages lined with autoclaved bedding. Autoclaved reverse osmosis (RO) water and autoclaved standard rat chow were provided ad libitum. Body weights were recorded weekly throughout the course of the studies. Animals were maintained for 6 weeks and euthanized by carbon dioxide inhalation at the end of the experiment. The animals were randomized to study groups by body weight as follows: G1: vehicle BID PO (N=6), G2: 0.04 mg/kg zoledronate QWK IV (N=6), G5: 90 mg/kg Compound of Formula IV BID PO (N=6), and G6: No implantation (N=3).
# MDA-MB-231 breast carcinoma cells were propagated by standard tissue culture methods in RPMI media containing 10% fetal bovine serum. Exponentially growing cells were trypsinized and resuspended in phosphate-buffered saline at a concentration of 2.5×10^7 cells/mi. Rats were maintained under isoflurane anesthesia during the tumor injection procedure. […]
# Radiographs were taken with rats under general anaesthesia. […] Radiographs were scanned and analysed. […]
# Femoral and tibial X-ray densitometry was performed. In brief, bones were X-rayed, the film was scanned and the electronic image then analysed by a real-colour image analysis system. Pixel density was then determined and used as a measure of disease progression.
compound,measurement,value
CC#CC(=O)N1CCCC1c1nc(-c2ccc(C(=O)Nc3ccccn3)cc2)c2c(N)ncnn12 (stereo not shown) [Compound of Formula IV],"bone density (femoral and tibial X-ray densitometry, pixel density)",inhibition of the decrease in bone density
